Values joined by “and” are separate entries in the source; they are usually repeats but may differ in a detail not shown here. Identical values can stand only once. “Also recorded” adds a separate entry of the source.
Assays:
[1] = tested on: New Zealand male rabbits; assay: Prevention of the onset of urethral strictures after electrocoagulation of the bulbar urethra (Example 1); type: in vivo, rabbit
Protocol: Near-circumferential, 15 mm long electrocoagulation of the bulbar urethra was performed endoscopically on 20 New Zealand male rabbits using a pediatric resectoscope and a round-ended electrocautery. The rabbits were randomized into 2 groups of 10 animals each. The first group received a diet containing 10 mg/kg of Halofuginone initiated 4 days before electrocoagulation and continued for 3 weeks. The second group received a standard chow, free of Halofuginone. Three weeks after electrocoagulation, the rabbits were examined by video urethrocystoscopy and retrograde urethrocystography and subsequently sacrificed for histological examination. The urethra was removed in one piece and fixed in 10% buffered formaldehyde. The histological examination was performed after the specimens were embedded in paraffin and stained with Masson trichrome, hematoxylin-eosin, and Sirius Red (IMEB, Inc., Chicago, Ill.) in order to evaluate fibrosis. With the latter staining method, collagen appears in red.

[2] = tested on: New Zealand male rabbits; assay: Prevention of the recurrence of urethral strictures following endoscopic internal urethrotomy (Example 2); type: in vivo, rabbit
Protocol: Near-circumferential, 15 mm long electrocoagulation of the bulbar urethra was performed endoscopically on 48 New Zealand male rabbits using a pediatric resectoscope and a round-ended electrocautery. Three weeks after electrocoagulation, the urethral strictures were evaluated using video urethrocystoscopy and retrograde urethrocystography. […] The urethral lumen was reduced by 70-95% (mean 88.5%). The obtained strictures were 7 to 19 mm in length (mean 11.7). Endoscopic internal urethrotomy was performed on all surviving rabbits using a cold knife, under visual guidance with a 0.028-inch diameter endoscopic guidewire. A single deep incision was made at the 12 o'clock position in all animals. The rabbits were subsequently randomized into 2 groups: one study group receiving Halofuginone for 10 weeks starting on the day of the urethrotomy, and one control group without Halofuginone. The study group was fed on a diet containing 10 mg/kg of Halofuginone, whereas the control group received a normal, Halofuginone-free diet. The rabbits were then monitored and evaluated for urethral strictures if any of the following signs appeared: decrease in 24-hour urine output, anorexia, worsening of general health status with palpable bladder distension. In the absence of any of these signs, the animals were systematically evaluated for urethral strictures 10 weeks after urethrotomy. This evaluation was performed using video urethrocystoscopy and retrograde urethrocystography. Thereafter, the rabbits were sacrificed for histological examination. The entire urethra was removed and fixed in 10% buffered formaldehyde. The histological examination was performed after the specimens had been embedded in paraffin and stained with Masson trichrome, hematoxylin-eosin, and Sirius Red (IMEB, Inc., Chicago, Ill.) in order to evaluate fibrosis. With the latter staining method, collagen appears in red.

[3] = the 2 treated rabbits with significant stricture, 3 weeks after electrocoagulation

**Q.** How did the “Nr. of urethral strictures (rabbits with significant urethral stricture)” value ([1]; 10 rabbits, diet containing 10 mg/kg Halofuginone from 4 days before electrocoagulation, continued 3 weeks, evaluated at 3 weeks, control 10 of 10, p<0.001) turn out when `O=C(CC1NCCC[C@H]1O)Cn1cnc2cc(Br)c(Cl)cc2c1=O` (stereo partly drawn) [Halofuginone] was run?
**A.** Its value is 2.

**Q.** What about the “number of rabbits with normal urethra” value ([1]; of 10 treated rabbits, 3 weeks after electrocoagulation) of the same molecule?
**A.** The value was 6.

**Q.** What about the “length of the significant strictures” value [1, 3] of the same molecule?
**A.** The value was 10 mm and 8 mm.

**Q.** What about the “reduction in urethral lumen caliber in the significant strictures” value [1, 3] of the same molecule?
**A.** Its value is 70% and 90%.

**Q.** What about the “histological study of the urethra (fibrosis)” value ([1]; treated rabbits without significant stricture) of the same molecule?
**A.** The value was “only focal alterations, with limited areas of fibrosis alternating with subnormal or normal urethral walls”.

**Q.** What about the “narrowing of the urethral lumen” value ([1]; two other treated rabbits, 3 weeks after electrocoagulation) of the same molecule?
**A.** Its value is “less than 30%”.

**Q.** What about the “retrograde urethrocystogram of the bulbar urethra” value ([2]; a rabbit of the study group, 10 weeks after internal urethrotomy, FIG. 2B) of the same molecule?
**A.** Its value is “no recurrent stricture was seen”.

**Q.** And the “Post-urethrotomy recurrent stricture, Nr./total Nr.” value ([2]; diet containing 10 mg/kg Halofuginone for 10 weeks from day of urethrotomy, control 14/19, P 0.005)?
**A.** The value was 5/18.

**Q.** And the “Post-urethrotomy recurrent stricture (%)” value ([2]; diet containing 10 mg/kg Halofuginone for 10 weeks from day of urethrotomy, control 73, P 0.005)?
**A.** The value was 27%.

**Q.** What about the “Nr. according to extent of histological fibrosis: Moderate to severe” value ([2]; of 18 rabbits, control 2 of 19) of the same molecule?
**A.** The value was 1.

**Q.** What about the “Nr. according to extent of histological fibrosis: Mild or absent” value ([2]; of 18 rabbits, control 5 of 19) of the same molecule?
**A.** Its value is 13.

**Q.** What about the “Nr. according to extent of histological fibrosis: Severe” value ([2]; of 18 rabbits, control 12 of 19) of the same molecule?
**A.** Its value is 4.

**Q.** And the “histological study of the site of the prior urethrotomy (fibrosis)” value ([2]; rabbits with no recurrence of stricture, FIG. 3)?
**A.** Its value is “no fibrosis or minimal fibrosis; also recorded: minimal fibrosis”.

**Q.** And the “Post-urethrotomy recurrent stricture, average length” value ([2]; recurrent strictures in Halofuginone group, control 11.4)?
**A.** Its value is 7.2 mm.

**Q.** And the “Post-urethrotomy recurrent stricture, average reduction of lumen” value ([2]; recurrent strictures in Halofuginone group, control 82.9)?
**A.** Its value is 92%.

**Q.** What about the “number of rabbits with recurrent stricture diagnosed at the 10-week evaluation” value ([2]; study group) of the same molecule?
**A.** Its value is 2.

**Q.** What about the “number of rabbits that developed no recurrence of urethral stricture” value ([2]; study group, 18 evaluable rabbits) of the same molecule?
**A.** Its value is 13.

**Q.** What about the “number of rabbits with recurrence suspected on clinical signs and confirmed radiologically and endoscopically” value ([2]; study group, before the 10-week evaluation) of the same molecule?
**A.** Its value is 3.

Reference: patent US20140288102A1, “PREVENTION OF RECURRENCES OF URETHRAL STRICTURES FOLLOWING CONVENTIONAL THERAPY” (priority 2007, published 2014)
